Experiments:
[1] = molecular target: T1, recombinant human HSP90beta (Homo sapiens, UniProt P08238); assay: Competition ELISA: HSP90 binding under influence of crossbeta binding compounds and geldanamycin; details: 20 μg/ml HSP90, geldanamycin 10 μM; for Binding of HSP90 to coated Aβ25-35 under influence of compound: sRAGE 79 μg/ml, HSA 10 μM
T1 construct: purchased Dr. S. Rüdiger, Cellular Protein Chemistry, Utrecht University
Description: Binding of chaperones to immobilized (misfolded) protein ligands was determined using an enzyme linked immuno sorbent assay (ELISA) approach. For this purpose 50 μl/well of potential ligands at indicated concentrations or coat buffer only for control and background measurement purposes, were coated overnight at 4° C. or coated for 1 h at room temperature, with motion, in 50 mM NaHCO3 pH 9.6 (coat buffer). In general, ligands were coated at 5 μg/ml, unless stated otherwise. […] Native haemoglobin (Sigma-Aldrich, H7379), albumin, IgIV Gammagard and ovalbumin controls were prepared from lyophilized stocks. The controls were prepared by dissolving lyophilized proteins at 1 mg/ml in PBS upon resuspending by pipetting, followed by a 30 minutes period at the roller device, at room temperature. The protein solutions were centrifuged for 10 minutes at 16,000*g and diluted in coat buffer. […] Plates were washed three times and incubated in triplicate with indicated chaperone dilution series, at 50 μl/well, for 1 h at room temperature, with constant motion. For HSP90, 5 mM DTT is incorporated in the binding buffer (PBS/0.1% Tween20) to avoid unwanted disulfide bond formation of the HSP90. […] After four wash cycles, secondary antibodies were added to the wells when required, 50 μl/well, for 45′ at room temperature, with motion. RAMPO and SWARPO were used at 3000 times dilution. […] In a second experiment with more immobilized misfolded proteins and controls, the detection of bound HSP90 with the mix of two anti-HSP90 antibodies was achieved by mixing 1:1500 SWARPO with 1:3000 RAMPO. After 5 washes with wash buffer followed by two washes with PBS, binding of antibodies was assessed. […] The reaction was stopped after 5 minutes with 1% H2SO4 in H2O. Plates were read at 450 nm. Triplicates were averaged and standard deviations calculated. Background signals obtained with buffer-coated wells were subtracted (binding of primary antibody to empty wells), as well as background signals obtained with ligand-coated wells in which the chaperones were omitted (binding of primary and secondary antibody to coated ligands). Subsequently, sub-optimal concentrations of chaperones for binding to misfolded protein ligands are determined, and these concentrations are used for inhibition studies.

HUVECs = assay: Adhesion of HUVECs to immobilized misfolded proteins under influence of BiP (LDH read-out); assay type: cell-based, human; details: for Number of adhered HUVECs after preincubation of coated protein with BiP: BiP approximately 200 μg/ml
Description: HUVECs are primary endothelial cells (ECs), isolated from umbilical cords using 0.1% collagenase (Sigma, C0130, 100 mg, dissolved in 100 ml M199 medium supplemented with 10% FCS (Gibco 10106-169) and Penicillin-Streptomycin (P/S, Gibco, 15140-122)), according to widespread used standard procedures known to a person skilled in the art. HUVECs have the typical features of ECs, e.g. cobblestone morphology and von Willebrand factor storage in Weibel-Palade bodies. HUVECs can regularly be cultured up to passage 5; beyond passage 5 HUVECs loose typical EC markers. The isolation is described here in brief. The umbilical cord is washed for less than 3 minutes in ethanol and subsequently with PBS. The vein is connected to canules and flushed with 10 ml PBS, followed by loading with the 0.1% collagenase solution. After a 15 minute-incubation at 37° C., the detached endothelial cell suspension is recovered by flushing the vein with 10 ml medium which is subsequently added to the collagenase solution. The EC suspension is centrifuged for 5 minutes at room temperature, at low g-force. Supernatant is discarded and the cell pellet is resuspended in 5 ml ‘rich medium’ (EGM-2; Endothelial basal medium (EBM-2, Cambrex, CC-3156) and Singlequots containing supplements for endothelial cells (Cambrex, CC-4176)). Cells (passage 0, P0) are seeded in a culture flask coated with 0.5% gelatin (Sigma, G1393). To facilitate the adhesion of the endothelial cells, human fibronectin is added to the cell culture at a final concentration of 2 μg/ml. EC's are cultured at 37° C., at 5% CO2. The cell culture medium is refreshed every 2-3 days up to when the cells grow to confluency. Then, with the addition of trypsin-EDTA, the cells are detached from the flask, centrifuged at low g-force, resuspended in rich medium and seeded in larger 0.5% gelatin-precoated cell culture flasks.
In 96-wells plates (Immulon high-binding plates, Thermo Labsystems 3355) proteins, i.e. BSA-AGE, control BSA, IgIV Gammagard, crossbeta dIgIV-86 at 5 μg/ml, 10 μg/ml misfolded oxLDL, or gelatin (Sigma G1393, 2% solution in H2O or PBS, positive control for adhesion to ECs) were coated using 100 μl solutions, in six wells for each condition. Following incubation for 2 hours at 37° C. the solutions were discarded and the wells blocked for 1 hour at 37° C. with 100 μl/well of 1% polyvinyl-pyrrolidone (PVP, Sigma P5288) in PBS, filter (0.22 μm) sterilized. […] Subsequently, the block solution was discarded. Next, the plates were incubated with 40 μl RPMI 1640 medium (Gibco, 52400) and 10 μl of the potential inhibitor, i.e. recombinant human BiP at approximately 200 μg/ml final concentration. HUVECs were obtained by trypsinization. […] The absorbance at 490 nm was measured on a Versamax microplate reader at various time points.

T1 sequence (P08238 whole entry): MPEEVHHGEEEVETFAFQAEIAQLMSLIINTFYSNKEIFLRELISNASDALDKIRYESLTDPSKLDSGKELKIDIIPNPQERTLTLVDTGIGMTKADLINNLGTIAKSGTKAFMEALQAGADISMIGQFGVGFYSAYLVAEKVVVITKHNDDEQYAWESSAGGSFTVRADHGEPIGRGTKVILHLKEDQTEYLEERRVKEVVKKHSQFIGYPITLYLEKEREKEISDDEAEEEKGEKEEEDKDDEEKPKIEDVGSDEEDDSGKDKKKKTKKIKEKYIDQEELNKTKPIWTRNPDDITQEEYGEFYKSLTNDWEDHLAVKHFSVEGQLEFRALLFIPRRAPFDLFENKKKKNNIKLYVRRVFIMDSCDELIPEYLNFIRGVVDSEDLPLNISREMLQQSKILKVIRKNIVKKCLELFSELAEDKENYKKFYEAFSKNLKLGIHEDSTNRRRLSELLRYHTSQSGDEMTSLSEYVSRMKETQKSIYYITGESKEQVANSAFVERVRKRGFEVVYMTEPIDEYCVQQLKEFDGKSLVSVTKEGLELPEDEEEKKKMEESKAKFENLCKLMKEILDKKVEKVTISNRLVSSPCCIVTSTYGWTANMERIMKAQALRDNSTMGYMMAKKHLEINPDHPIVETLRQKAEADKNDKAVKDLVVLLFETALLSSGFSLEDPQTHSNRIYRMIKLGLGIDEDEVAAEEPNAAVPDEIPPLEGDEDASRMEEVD

Compound	Binding of HSP90 to coated HbAGE under influence of compound [1]	Binding of HSP90 to coated Aβ25-35 under influence of compound [1]	Number of adhered HUVECs after preincubation of coated protein with BiP (HUVECs)	Adhesion of HUVECs to coated protein (HUVECs; without BiP, LDH activity after lysis)
Cc1ccc2c(c1)sc(-c1ccc(N(C)C)cc1)[n+]2C.[Cl-] [ThT, Thioflavin T]	had no influence	stimulatory activity		
native BSA: non-modified bovine serum albumin control			hardly increase	
BSA-AGE			hardly increase	to a similar extent as to gelatin
Nc1c(/N=N/c2ccc(-c3ccc(/N=N/c4cc(S(=O)(=O)O)c5ccccc5c4N)cc3)cc2)cc(S(=O)(=O)O)c2ccccc12 [Congo red]	inhibited	stimulatory activity		

Source: patent US20100015126A1, “Methods of Binding of Cross-Beta Structures By Chaperones” (priority 2006, published 2010)
